Test results reported in patent US11793774B2, “Chiral beta-hydroxyethylamines and their use in the treatment of hyperglycemia” (ATROGI AB, priority 2017, dated 2023).

What was measured:
[1] = tested on: L6-myotubes; assay: Glucose uptake (3H-2-deoxy-glucose) in differentiated L6-myotubes; assay type: cell-based; conditions: agonist final concentration 1×10^−5, 3H-2-deoxy-glucose uptake, relative to isoproterenol
Description: L6-myoblasts were grown in Dulbecco's Modified Eagle's Medium (DMEM) containing 4.5 g/l glucose supplemented with 10% fetal bovine serum, 2 mM L-Glutamine, 50 U/ml penicillin, 50 μg/ml streptomycin and 10 mM HEPES. Cells were plated at 1×10^5 cells per ml in 24-well plates. After reaching 90% confluence the cells were grown in medium containing 2% FBS for 7 days where upon cells differentiated into myotubes. Differentiated L6-myotubes were serum-starved over night in medium containing 0.5% fatty-acid free BSA and stimulated with agonist, final concentration 1×10^−5. After 1 h 40 min cells were washed with warm, glucose free medium or PBS and another portion of agonist was added to glucose free medium. After 20 min the cells were exposed to 50 nM ^3H-2-deoxy-glucose for another 10 min before washed in ice cold glucose free medium or PBS and lysed in 0.2 M NaOH for 1 h in 60° C.

[2] = tested on: Intracellular cAMP levels; assay: Measurement of intracellular cAMP levels in differentiated cells (alpha screen cAMP kit); assay type: cell-based; conditions: agonist final concentration 1×10^−5, 15 min, 1 mM IBMX, relative to isoproterenol
Description: L6-myoblasts were grown in Dulbecco's Modified Eagle's Medium (DMEM) containing 4.5 g/l glucose supplemented with 10% fetal bovine serum, 2 mM L-Glutamine, 50 U/ml penicillin, 50 μg/ml streptomycin and 10 mM HEPES. Cells were plated at 1×10^5 cells per ml in 24-well plates. After reaching 90% confluence the cells were grown in medium containing 2% FBS for 7 days where upon cells differentiated into myotubes.
Differentiated cells were serum-starved over night and stimulated with agonist, final concentration 1×10^−5, for 15 min in stimulation buffer (HBSS supplemented with 1% BSA, 5 mM HEPES and 1 mM IBMX, pH 7.4) The medium was then aspirated and to end the reaction 100 μL of 95% EtOH was added to each well of a 24-well plate and cells were kept in −20° C. over night. The EtOH was let to evaporate and 500 μL of lysis buffer (1% BSA, 5 mM HEPES and 0.3% Tween-20, pH 7.4) was added to each well before put in −80° C. for 30 min and then kept in −20° C. Intracellular cAMP levels were detected using an alpha screen cAMP kit (6760635D from Perkin Elmer). The activity for each compound is compared to that of isoproterenol.

| SMILES | Biological example 1: glucose uptake activity compared to that of isoproterenol [1] | Biological example 2: intracellular cAMP activity compared to that of isoproterenol [2] |
| --- | --- | --- |
| CCC[C@@H](C)NC[C@H](O)c1cccc(O)c1 [Example 4, 3-((R)-1-Hydroxy-2-(((R)-pentan-2-yl)amino)ethyl)phenol Hemisulphate] | +++ (activity of more than 75% of that of isoproterenol) | ++ (between 75 and 50%) |
| CCC[C@@H](C)NC[C@H](O)c1ccc(O)cc1 [Example 2, 4-((R)-1-Hydroxy-2-(((R)-pentan-2-yl)amino)ethyl)phenol Hemisulphate] | ++ (between 75 and 50%) | + (between 50 and 25%) |
| CCC[C@@H](C)NC[C@H](O)c1ccc(F)cc1 [Example 5, (R)-1-(4-Fluorophenyl)-2-(((R)-pentan-2-yl)amino)ethan-1-ol] | ++ (between 75 and 50%) | − (less than 25%) |
| CCC[C@@H](C)NC[C@H](O)c1cccc(F)c1 [Example 6, (R)-1-(3-fluorophenyl)-2-(((R)-pentan-2-yl)amino)ethan-1-ol] | ++ (between 75 and 50%) | − (less than 25%) |
